Assays:
[1] = molecular target: T1, ABCC6 WT (Homo sapiens, UniProt O95255); experiment: ABCC6 WT assay: HiBit protein expression; type: cell-based; settings: HEK-293 cells transiently expressing HiBit-tagged ABCC6 WT; 24 h treatment; top concentration 20 μM; read-out: ABCC6 WT EC50, Emax
T1 construct: expressed in transfected cells; host or cells: HEK-293 (transient, Lipofectamine 2000)
Method in brief: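 HEK-293 cells transiently transfected with HiBit-tagged human ABCC6 WT cDNA, seeded 24 h post-transfection, treated 24 h at 37° C with ten 2-fold doses (top 20 μM final, 0.15% DMSO). HiBit lytic luminescence reports protein expression; Emax and EC50 derived.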

[2] = molecular target: T2, ABCD2 WT (Homo sapiens, UniProt Q9UBJ2); experiment: D2 correction dose-response assay: ABCD2 WT HiBit protein expression; type: cell-based; settings: HEK-293/ABCD2 WT cells, 24 hours treatment, HiBit luminescence; class combines EC50 and Mean MaxAct (fold); read-out: ABCD2 WT EC50, Emax
T2 construct: expressed in transfected cells
T2 sequence (Q9UBJ2 1-740): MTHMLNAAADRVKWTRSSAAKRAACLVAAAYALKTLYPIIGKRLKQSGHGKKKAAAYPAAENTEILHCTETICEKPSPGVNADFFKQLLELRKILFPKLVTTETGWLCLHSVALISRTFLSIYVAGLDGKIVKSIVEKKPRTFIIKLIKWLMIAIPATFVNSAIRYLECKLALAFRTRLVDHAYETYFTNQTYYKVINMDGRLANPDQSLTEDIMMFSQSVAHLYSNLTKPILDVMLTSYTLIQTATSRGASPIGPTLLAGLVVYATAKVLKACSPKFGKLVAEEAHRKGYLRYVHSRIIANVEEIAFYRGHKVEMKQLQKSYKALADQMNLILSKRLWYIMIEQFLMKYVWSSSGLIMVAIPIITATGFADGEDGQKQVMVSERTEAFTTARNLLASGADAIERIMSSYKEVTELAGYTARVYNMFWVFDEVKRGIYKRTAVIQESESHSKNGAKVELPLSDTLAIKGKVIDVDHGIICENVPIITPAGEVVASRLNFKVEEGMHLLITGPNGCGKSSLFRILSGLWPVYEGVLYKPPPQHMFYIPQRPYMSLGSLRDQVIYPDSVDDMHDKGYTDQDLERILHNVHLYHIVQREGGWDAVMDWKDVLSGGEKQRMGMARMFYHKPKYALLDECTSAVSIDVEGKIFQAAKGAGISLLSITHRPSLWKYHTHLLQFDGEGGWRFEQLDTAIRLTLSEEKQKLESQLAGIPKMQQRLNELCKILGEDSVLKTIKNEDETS
Method in brief: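 HEK-293 cells stably expressing HiBit-tagged human ABCD2 WT were treated with 11 doses (3-fold dilutions, top final 30 μM, 0.3% DMSO) for 24 h at 37 °C. Expression was measured by HiBit lytic luminescence after 1 h at 25 °C, giving EC50 and Emax.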

T1 sequence (O95255 whole entry): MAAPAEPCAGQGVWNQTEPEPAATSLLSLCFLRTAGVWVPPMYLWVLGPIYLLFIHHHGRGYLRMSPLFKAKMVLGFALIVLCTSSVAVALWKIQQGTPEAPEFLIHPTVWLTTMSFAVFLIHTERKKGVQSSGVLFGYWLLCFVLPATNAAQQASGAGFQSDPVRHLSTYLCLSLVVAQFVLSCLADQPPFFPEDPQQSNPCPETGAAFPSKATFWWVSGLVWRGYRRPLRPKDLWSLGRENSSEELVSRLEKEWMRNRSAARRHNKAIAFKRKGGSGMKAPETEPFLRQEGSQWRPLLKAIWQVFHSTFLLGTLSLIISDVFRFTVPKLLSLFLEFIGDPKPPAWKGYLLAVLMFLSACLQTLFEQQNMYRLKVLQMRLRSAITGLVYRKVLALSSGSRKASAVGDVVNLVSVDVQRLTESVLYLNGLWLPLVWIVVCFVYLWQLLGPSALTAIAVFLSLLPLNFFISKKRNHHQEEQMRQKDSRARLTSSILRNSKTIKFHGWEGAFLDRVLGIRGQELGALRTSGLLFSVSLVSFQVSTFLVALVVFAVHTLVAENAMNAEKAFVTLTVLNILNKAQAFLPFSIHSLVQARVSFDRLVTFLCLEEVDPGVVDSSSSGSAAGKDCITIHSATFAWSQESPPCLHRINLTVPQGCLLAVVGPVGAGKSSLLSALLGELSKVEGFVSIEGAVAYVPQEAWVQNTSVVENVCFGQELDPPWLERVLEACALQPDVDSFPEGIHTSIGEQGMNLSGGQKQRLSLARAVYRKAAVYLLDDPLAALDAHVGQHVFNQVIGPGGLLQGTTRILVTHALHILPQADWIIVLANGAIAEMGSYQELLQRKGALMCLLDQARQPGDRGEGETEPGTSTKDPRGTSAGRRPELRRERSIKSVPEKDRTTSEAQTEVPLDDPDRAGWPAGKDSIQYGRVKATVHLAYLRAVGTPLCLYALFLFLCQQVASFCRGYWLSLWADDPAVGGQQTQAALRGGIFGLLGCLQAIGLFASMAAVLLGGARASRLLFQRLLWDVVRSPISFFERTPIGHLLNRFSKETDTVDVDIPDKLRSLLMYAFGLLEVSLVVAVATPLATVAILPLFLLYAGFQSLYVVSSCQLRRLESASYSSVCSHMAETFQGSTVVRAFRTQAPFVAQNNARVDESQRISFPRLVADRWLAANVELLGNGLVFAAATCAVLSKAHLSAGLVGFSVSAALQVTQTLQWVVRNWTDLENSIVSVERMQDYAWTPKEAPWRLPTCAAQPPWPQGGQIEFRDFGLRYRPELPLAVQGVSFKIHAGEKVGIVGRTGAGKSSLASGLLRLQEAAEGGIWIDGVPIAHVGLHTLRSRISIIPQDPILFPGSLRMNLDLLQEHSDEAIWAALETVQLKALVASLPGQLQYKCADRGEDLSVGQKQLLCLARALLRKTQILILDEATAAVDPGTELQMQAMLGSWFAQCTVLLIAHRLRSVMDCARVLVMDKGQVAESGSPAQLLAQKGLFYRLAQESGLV

Row | SMILES | EC50 [1] [µM] | EC50 [2] [µM]
1 | Cc1cc(C)c(Oc2cc(-c3cncc(Cl)c3)cnc2NS(=O)(=O)c2cnn(C)c2)c(C)c1 [Compound I-61] | 1 to 10 | 1 to 10
2 | Cc1cc(C)c(Oc2nc(-c3cncc(Cl)c3)ccc2NS(=O)(=O)Cc2ccccn2)c(C)c1 [Compound I-62] | ≥ 25 | < 1
3 | COc1ccc2nc[nH]c2c1S(=O)(=O)Nc1ccc(-c2cncc(Cl)c2)nc1Oc1c(C)cc(C)cc1C [Compound I-63] | < 1 | > 25
4 | Cc1cc(C)c(Oc2nc(-c3cncc(Cl)c3)ccc2N(C)S(=O)(=O)Cc2ccccc2)c(C)c1 [Compound I-64] | < 25 | 1 to 10
5 | Cc1cc(C)c(Oc2nc(-c3cncc(Cl)c3)ccc2NS(=O)(=O)Cc2ccccc2)c(C)c1 [Compound I-65] | ≥ 25 | > 25
6 | Cc1cc(C)c(Oc2nc(-c3cncc(Cl)c3)ccc2N2CCCCS2(=O)=O)c(C)c1 [Compound I-66] | 1 to 10 | 10 to 25
7 | Cc1cc(C)c(Oc2nc(-c3cncc(Cl)c3)ccc2N2CCCS2(=O)=O)c(C)c1 [Compound I-67] | 1 to 10 | 1 to 10
8 | Cc1cc(C)c(Oc2nc(-c3cncc(Cl)c3)ccc2NS(=O)(=O)C(C)(C)C)c(C)c1 [Compound I-68] | ≥ 25 | > 25
9 | Cc1cc(C)c(Oc2nc(-c3cncc(Cl)c3)ccc2N(C)S(=O)(=O)c2cccnc2)c(C)c1 [Compound I-69] | < 1 | > 25
10 | Cc1cc(C)c(Oc2nc(-c3cncc(Cl)c3)ccc2N(C)S(=O)(=O)c2cnn(C)c2)c(C)c1 [Compound I-70] | < 1 | < 1
11 | Cc1cc(C)c(Oc2nc(-c3cncc(Cl)c3)ccc2NS(=O)(=O)c2cccnc2)c(C)c1 [Compound I-71] | < 1 | < 25
12 | Cc1cc(C)c(Oc2nc(-c3cncc(Cl)c3)ccc2NS(=O)(=O)c2cnn(C)c2)c(C)c1 [Compound I-72] | 1 to 10 | < 1
13 | CNS(=O)(=O)c1ccc(N2CCN(C(=O)C3CC3)CC2)nc1Oc1c(C)cc(C)cc1C [Compound I-73] | 1 to 10 | 1 to 10
14 | COC1CC(NS(=O)(=O)c2ccc(-c3cncc(Cl)c3)nc2Oc2c(C)cc(C)cc2C2CC2)C1 (stereo not drawn) [Compound I-74] | 1 to 10 | < 25
15 | Cc1cc(C)c(Oc2nc(-c3cncc(Cl)c3)ccc2S(=O)(=O)Nc2cnn(C)c2)c(C2CC2)c1 [Compound I-75] | < 25 | < 25
16 | Cc1cc(C)c(Oc2nc(-c3cncc(Cl)c3)ccc2S(=O)(=O)NCc2ccccn2)c(C2CC2)c1 [Compound I-76] | ≥ 25 | 1 to 10
17 | CNS(=O)(=O)c1ccc(-c2cncc(Cl)c2)nc1Oc1c(C)cc(C)cc1C1CC1 [Compound I-77] | < 1 | < 1
18 | COC1CC(NS(=O)(=O)c2ccc(-c3cncc(Cl)c3)nc2Oc2c(C)cc(C)cc2C)C1 (stereo not drawn) [Compound I-78] | < 1 | 1 to 10
19 | Cc1cc(C)c(Oc2nc(-c3cncc(Cl)c3)ccc2S(=O)(=O)N[C@H](c2ccccc2)C(F)(F)F)c(C)c1 [Compound I-81] | 1 to 10 | 1 to 10
20 | Cc1cc(C)c(Oc2nc(-c3cncc(Cl)c3)ccc2S(=O)(=O)N[C@@H](c2ccccc2)C(F)(F)F)c(C)c1 [Compound I-83] | 1 to 10 | 1 to 10
21 | CNS(=O)(=O)c1cnc(-c2cncc(Cl)c2)cc1Oc1c(C)cc(C)cc1C [Compound I-84] | ≥ 25 | 10 to 25
22 | Cc1cc(C)c(Oc2nc(-c3cncc(Cl)c3)ccc2S(=O)(=O)N(C)Cc2ccccc2)c(C)c1 [Compound I-85] | ≥ 25 | 1 to 10
23 | Cc1cc(C)c(Oc2nc(-c3cncc(Cl)c3)ccc2S(=O)(=O)NCc2ccccn2)c(C)c1 [Compound I-86] | 1 to 10 | 1 to 10
24 | Cc1cc(C)c(Oc2nc(-c3cncc(Cl)c3)ccc2S(=O)(=O)NCc2cc(C(F)(F)F)ccn2)c(C)c1 [Compound I-87] | 1 to 10 | > 25
25 | Cc1cc(C)c(Oc2nc(-c3cncc(Cl)c3)ccc2S(=O)(=O)NCc2ccccc2)c(C)c1 [Compound I-88] | 1 to 10 | 1 to 10
26 | CNS(=O)(=O)c1ncc(-c2cncc(Cl)c2)nc1Oc1c(C)cc(C)c(Cl)c1C [Compound I-89] | < 25 | 1 to 10
27 | Cc1cc(C)c(Oc2nc(-c3cncc(Cl)c3)cnc2S(N)(=O)=O)c(C)c1Cl [Compound I-90] | < 1 | 1 to 10
28 | CNS(=O)(=O)c1ccc(N2CCN(C)C(=O)C2)nc1Oc1c(C)cc(C)cc1C [Compound I-92] | 1 to 10 | > 25
29 | Cc1cc(C)c(Oc2nc(-c3cncc(Cl)c3)ncc2S(N)(=O)=O)c(C)c1Cl [Compound I-93] | < 25 | 1 to 10
30 | Cc1cc(C)c(Oc2nc(-c3cncc(Cl)c3)ccc2S(=O)(=O)Nc2cnn(C)c2)c(C)c1 [Compound I-94] | 1 to 10 | 1 to 10
